Reference: article PMC11087051, “Large-scale deorphanization of Nematostella vectensis neuropeptide G protein-coupled receptors supports the independent expansion of bilaterian and cnidarian peptidergic systems” (eLife, 2024)

Experiments:
[1] = tested on: QGRFa.R070 (R70, GPR70); experiment: GPCR deorphanization dose-response assay (HEK293, G5A luminescence); assay type: cell-based, Nematostella vectensis; settings: drc fit
Procedure: (§1) To experimentally identify Nematostella neuropeptide GPCRs, we tested our selection of 161 N. vectensis GPCRs in a pharmacological assay for activation by peptides from our peptide library (Figure 3A, Supplementary files 3 and 8). We expressed the candidate GPCRs in mammalian cells, together with a promiscuous Gqi protein and a luminescent G5A reporter (Figure 3A, Supplementary file 7). The peptides were separated into different mixes (Supplementary file 3), which were then tested on each GPCR (Supplementary file 4). Receptor-mix combinations that gave a positive signal were further resolved by testing the individual peptides of the mix to identify the activating ligand (Supplementary file 4). […]
(§2) A detailed step-by-step protocol has been published in [Thiel et al., 2023]. […] For each well, 10 µl OptiMEM (without FBS), 70 ng of GPCR containing plasmid, 70 ng of Gqi5/9 plasmid, 10–20 ng of G5A plasmid (to increase luminescence values of our HEK293 cell line), and 0.45–0.48 µl T5000/PEI were mixed and incubated for 20 min at room temperature. […] Readings were performed with a FlexStation 3 Multi-mode Microplate reader (Molecular Devices), for a period of 60 s per well, ligand injection after 15–18 s, and the whole plate was read with the Flex option. […] The readout data for the final dose-response curves is provided in Supplementary file 9 and as .csv files in the repository in the data folder. […]

[2] = tested on: QITRFa.R196 (R196, GPR196); experiment: as above; assay type: cell-based, Nematostella vectensis; settings: drc fit
Procedure: as §1, §2

## pyrQITRFamide [synthetic N. vectensis RFamide neuropeptide pyrQITRFamide]
[1]
  Slope of the dose-response curve: -1.343
[2]
  Slope of the dose-response curve: -0.6635
